According to patent US12037355B2, “Triterpene saponin analogues” (priority 2015, dated 2024):

Experiments:
pertussis toxin = test: Adacel (Tdap vaccine) immunogenicity in mice, anti-PT antibody in serum; assay type: in vivo; conditions: for Antibody levels augmented compared to immunization with Adacel alone: adjuvant with Adacel
hemolysis = test: Hemolytic assay; assay type: cell-based
Method: (§1) Natural and synthetic QS-21 (SQS-21 or SAPONEX®) and a variety of analogs were tested for hemolytic activity.

Stability at 37° C. = assay type: physicochemical; conditions: for degradation: after two weeks at 37° C.
Method: as §1

[1] = Weight loss in Engerix-B / TiterQuil-1055 study; conditions: mice
[2] = Companion toxicity study, body mass three days after immunization
Method: as §1

[3] = Pilot pharmacology/toxicology study with Adacel, QS-21 and TiterQuil-1055; conditions: for changes in blood chemistry or hematology results: SC days 1 and 15, bled day 22 (group 7 day 29); for weight loss (body weight): mice, 50 mcg TiterQuil-1055, 20 mcg QS-21; for liver histopathology (hepatocellular cytoplasmic vacuolization): sacrificed day 22, 33 tissues examined
[4] = cited from earlier work
[5] = groups of 5 mice, 2 weeks after second SC immunization
[6] = groups of 5 mice, 50 mcg TiterQuil-1055, 20 mcg QS-21, Adacel 2.5 mcg pertussis toxin
[7] = 50 mcg TiterQuil-1055, 20 mcg QS-21, Adacel 2.5 mcg pertussis toxin

Compound | Antibody levels (pertussis toxin; 0.5 mcg dose of Adacel, alone or with TiterQuil-1055, groups of 5 mice, 2 weeks after second SC immunization) | Antibody levels 2 weeks later (pertussis toxin; TiterQuil-1055 with Adacel, 2 weeks after the 2-week post-second-immunization bleed) | Antibody levels augmented compared to immunization with Adacel alone (pertussis toxin; [5]) [fold] | hemolytic activity (hemolysis) | stability relative to QS-21 (Stability at 37° C.) | degradation (Stability at 37° C.) | weight loss ([1]; 30 mcg TiterQuil-1055 dose) | weight loss ([1]; 100 mcg TiterQuil-1055 dose) [%] | weight loss ([1]; 300 mcg TiterQuil-1055 dose) [%] | body mass gained on average ([2]; young mice) [%] | changes in blood chemistry or hematology results [3, 6] | weight loss ([3]; groups of 5 mice, SC days 1 and 15, weighed daily, 50 mcg TiterQuil-1055, 20 mcg QS-21, Adacel 2.5 mcg pertussis toxin) | weight loss (body weight) [3] | liver histopathology (hepatocellular cytoplasmic vacuolization) [3, 7] | tolerated (maximum) dose in cancer patients ([4]; cancer patients, above this dose local and systemic side effects) [µg] | maximum dose for healthy patients ([4]; healthy patients) [µg] | highest practical tolerable dose ([4]; well (non-cancer) adult and child recipients) [µg] | body mass lost on average ([2]; 20 mcg QS-21)
CC1O[C@@H](OC2C(O)[C@@H](NC(=O)CCCCCCCCCCC(=O)O)C(CO)O[C@H]2OC(=O)[C@]23CCC(C)(C)CC2C2=CCC4C5(C)CC[C@H](O)C(C)(C=O)C5CC[C@]4(C)C2(C)CC3O)C(O)C(O)[C@H]1O[C@@H]1OC[C@@H](O)C(O)C1O (stereo partly drawn) [Compound I-4] | 52,344 | further increased | 70 | much lower or undetectable hemolytic activity | increased stability | without detectable degradation | No weight loss | 4 | 5 | 5 | No changes | no other mice | No weight loss | No changes at all |  |  |  | 
QS-21 [reference compound] |  |  | 10 | highly hemolytically active |  | 20% |  |  |  |  | No changes |  | 8-9% | Mild vacuolar changes | 100 to 150 | ~50 | 25 to 50 | 8-10%
